From US20260022142A1, “MACROCYCLIC IMMUNOMODULATORS” (Bristol-Myers Squibb Company, priority 2022, published 2026)
pIC50: −log10 of the molar value. Bridge positions count the residues as written; N and C are the ends. Square brackets hold non-standard residues; d marks the D form. Peptide text beside a SMILES is read from it. * marks the point of attachment. ξ: configuration not given here. Bip = N[C@@H](Cc1ccc(-c2ccccc2)cc1)C(=O)O; Phe(3-Me) = Cc1cccc(C[C@H](N)C(=O)O)c1; 4Pal = N[C@@H](Cc1ccncc1)C(=O)O; 3Thi = N[C@@H](Cc1ccsc1)C(=O)O; Cha = N[C@@H](CC1CCCCC1)C(=O)O; Cit = NC(=O)NCCC[C@H](N)C(=O)O; Ile(3ξ) = CCC(C)[C@H](N)C(=O)O; Thr(3ξ) = CC(O)[C@H](N)C(=O)O; Carboxymethyl = O=C(O)C*; Orn = NCCC[C@H](N)C(=O)O; Aun = NCCCCCCCCCCC(=O)O; Dab = NCC[C@H](N)C(=O)O; Dap = NC[C@H](N)C(=O)O; AEEA = NCCOCCOCC(=O)O

Target: T1, PD-1/PD-L1 interaction (PE-labeled human PD-L1-Ig binding to Jurkat cell line over-expressing human PD-1) (Homo sapiens, UniProt Q15116)
T1 construct: expressed in transfected cells; host or cells: Jurkat
Assay: Jurkat-PD-1 Cell Binding High-Content Screening Assay (CBA)
Assay type: cell-based
Conditions: Jurkat cell line over-expressing human PD-1; PE-labeled PD-L1-Ig 20 nM final; read-out: Jurkat hPD1-PDL1 IC50
How it was run: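 Binding of fluorescent PD-L1-Ig (20 nM final) to Jurkat-PD-1 cells was measured by automated imaging after 1 h, following a 2 h compound pre-treatment at 37° C.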

T1 sequence (Q15116 25-288): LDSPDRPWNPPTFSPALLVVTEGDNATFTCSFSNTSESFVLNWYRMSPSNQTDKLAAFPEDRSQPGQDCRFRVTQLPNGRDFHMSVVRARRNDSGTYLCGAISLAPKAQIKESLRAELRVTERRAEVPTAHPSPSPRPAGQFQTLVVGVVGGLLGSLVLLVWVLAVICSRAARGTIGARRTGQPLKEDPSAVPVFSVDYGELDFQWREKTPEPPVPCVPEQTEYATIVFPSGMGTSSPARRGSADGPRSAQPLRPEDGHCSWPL

Row | pIC50 | SMILES
1 | 6.92 | CC(C)C[C@H]1NC(=O)[C@H](CCN)NC(=O)[C@H](C(C)C)NC(=O)[C@H](Cc2ccc(-c3ccccc3)cc2)NC(=O)[C@H](C(C)C)NC(=O)[C@H](Cc2c[nH]c3ccccc23)NC(=O)[C@H](CC(=O)O)NC(=O)[C@H](Cc2ccc(OCC(=O)O)cc2)NC(=O)[C@H](Cc2ccsc2)NC(=O)CSC[C@@H](C(=O)N[C@@H](CCN)C(=O)NCCCCCCCCCCC(=O)O)NC(=O)[C@H](C(C)O)NC(=O)[C@H](C(C)C)NC(=O)[C@H](CC2CCCCC2)NC(=O)[C@H](CCN)NC1=O (stereo partly drawn) [Compound 3282] ({CH2CO}-[3Thi]Y(Carboxymethyl)DWV[Bip]V[Dab][dL][Dab][Cha]V[Thr(3ξ)]C[Dab][Aun]-OH; thioether N-14)
2 | 7.86 | CC(C)C[C@H]1NC(=O)[C@H](CCN)NC(=O)[C@H](C(C)C)NC(=O)[C@H](Cc2ccc(-c3ccccc3)cc2)NC(=O)[C@H](C(C)C)NC(=O)[C@H](Cc2c[nH]c3ccccc23)NC(=O)[C@H](CC(=O)O)NC(=O)[C@H](Cc2ccc(OCC(=O)O)cc2)NC(=O)[C@H](Cc2ccsc2)NC(=O)CSC[C@@H](C(=O)NCCOCCOCC(=O)N[C@@H](CCN)C(=O)NCCCCCCCCCCC(=O)O)NC(=O)[C@H](CCCNC(=N)N)NC(=O)[C@H](C(C)C)NC(=O)[C@H](CC2CCCCC2)NC(=O)[C@H](CCN)NC1=O [Compound 3283] ({CH2CO}-[3Thi]Y(Carboxymethyl)DWV[Bip]V[Dab][dL][Dab][Cha]VRC[AEEA][Dab][Aun]-OH; thioether N-14)
3 | 7.99 | CC(C)C[C@H]1NC(=O)[C@H](CCN)NC(=O)[C@H](C(C)C)NC(=O)[C@H](Cc2ccc(-c3ccccc3)cc2)NC(=O)[C@H](C(C)C)NC(=O)[C@H](Cc2c[nH]c3ccccc23)NC(=O)[C@H](CC(=O)O)NC(=O)[C@H](Cc2ccc(OCC(=O)O)cc2)NC(=O)[C@H](Cc2ccsc2)NC(=O)CSC[C@@H](C(=O)NCCOCCOCC(=O)N[C@@H](CCN)C(=O)NCCCCCCCCCCC(=O)O)NC(=O)[C@H](CCCN)NC(=O)[C@H](C(C)C)NC(=O)[C@H](CC2CCCCC2)NC(=O)[C@H](CCN)NC1=O [Compound 3284] ({CH2CO}-[3Thi]Y(Carboxymethyl)DWV[Bip]V[Dab][dL][Dab][Cha]V[Orn]C[AEEA][Dab][Aun]-OH; thioether N-14)
4 | 8.03 | CCC(C)[C@@H]1NC(=O)[C@H](Cc2ccc(-c3ccccc3)cc2)NC(=O)[C@H](C(C)C)NC(=O)[C@H](Cc2c[nH]c3ccccc23)NC(=O)[C@H](CC(=O)O)NC(=O)[C@H](Cc2ccc(OCC(=O)O)cc2)NC(=O)[C@H](CCCNC(=N)N)NC(=O)CSC[C@@H](C(=O)N[C@H](CC(N)=O)C(=O)NCCCCCCCCCCC(=O)O)NC(=O)[C@H](CCCN)NC(=O)[C@H](C(C)C)NC(=O)[C@H](CC2CCCCC2)NC(=O)[C@H](CCN)NC(=O)[C@@H](CC(C)C)NC(=O)[C@H](CCN)NC1=O (stereo partly drawn) [Compound 3285] ({CH2CO}-RY(Carboxymethyl)DWV[Bip][Ile(3ξ)][Dab][dL][Dab][Cha]V[Orn]C[dN][Aun]-OH; thioether N-14)
5 | 8.08 | CC(C)C[C@H]1NC(=O)[C@H](CCN)NC(=O)[C@H](C(C)C)NC(=O)[C@H](Cc2ccc(-c3ccccc3)cc2)NC(=O)[C@H](C(C)C)NC(=O)[C@H](Cc2c[nH]c3ccccc23)NC(=O)[C@H](CC(=O)O)NC(=O)[C@H](Cc2ccc(OCC(=O)O)cc2)NC(=O)[C@H](Cc2ccsc2)NC(=O)CSC[C@@H](C(=O)N[C@H](CC(N)=O)C(=O)NCCCCCCCCCCC(=O)O)NC(=O)[C@H](CCCCN)NC(=O)[C@H](C(C)C)NC(=O)[C@H](CC2CCCCC2)NC(=O)[C@H](CCN)NC1=O [Compound 3286] ({CH2CO}-[3Thi]Y(Carboxymethyl)DWV[Bip]V[Dab][dL][Dab][Cha]VKC[dN][Aun]-OH; thioether N-14)
6 | 7.97 | CC(C)C[C@H]1NC(=O)[C@H](CCCN)NC(=O)[C@H](C(C)C)NC(=O)[C@H](Cc2ccc(-c3ccccc3)cc2)NC(=O)[C@H](C(C)C)NC(=O)[C@H](Cc2c[nH]c3ccccc23)NC(=O)[C@H](CC(=O)O)NC(=O)[C@H](Cc2ccc(OCC(=O)O)cc2)NC(=O)[C@H](CCCNC(=N)N)NC(=O)CSC[C@@H](C(=O)N[C@@H](CCN)C(=O)NCCCCCCCCCCC(=O)O)NC(=O)[C@H](CN)NC(=O)[C@H](C(C)C)NC(=O)[C@H](CC2CCCCC2)NC(=O)[C@H](CCN)NC1=O [Compound 3287] ({CH2CO}-RY(Carboxymethyl)DWV[Bip]V[Orn][dL][Dab][Cha]V[Dap]C[Dab][Aun]-OH; thioether N-14)
7 | 7.86 | CC(C)C[C@H]1NC(=O)[C@H](CCCN)NC(=O)[C@H](C(C)C)NC(=O)[C@H](Cc2ccc(-c3ccccc3)cc2)NC(=O)[C@H](C(C)C)NC(=O)[C@H](Cc2c[nH]c3ccccc23)NC(=O)[C@H](CC(=O)O)NC(=O)[C@H](Cc2ccc(OCC(=O)O)cc2)NC(=O)[C@H](CCCNC(=N)N)NC(=O)CSC[C@@H](C(=O)N[C@@H](CCN)C(=O)NCCCCCCCCCCC(=O)O)NC(=O)[C@H](CCN)NC(=O)[C@H](C(C)C)NC(=O)[C@H](CC2CCCCC2)NC(=O)[C@H](CCN)NC1=O [Compound 3288] ({CH2CO}-RY(Carboxymethyl)DWV[Bip]V[Orn][dL][Dab][Cha]V[Dab]C[Dab][Aun]-OH; thioether N-14)
8 | 7.89 | CC(C)C[C@H]1NC(=O)[C@H](CCCN)NC(=O)[C@H](C(C)C)NC(=O)[C@H](Cc2ccc(-c3ccccc3)cc2)NC(=O)[C@H](C(C)C)NC(=O)[C@H](Cc2c[nH]c3ccccc23)NC(=O)[C@H](CC(=O)O)NC(=O)[C@H](Cc2ccc(OCC(=O)O)cc2)NC(=O)[C@H](CCCNC(=N)N)NC(=O)CSC[C@@H](C(=O)N[C@@H](CCN)C(=O)NCCCCCCCCCCC(=O)O)NC(=O)[C@H](CCCN)NC(=O)[C@H](C(C)C)NC(=O)[C@H](CC2CCCCC2)NC(=O)[C@H](CCN)NC1=O [Compound 3289] ({CH2CO}-RY(Carboxymethyl)DWV[Bip]V[Orn][dL][Dab][Cha]V[Orn]C[Dab][Aun]-OH; thioether N-14)
9 | 7.40 | CC(C)C[C@H]1NC(=O)[C@H](CCCN)NC(=O)[C@H](C(C)C)NC(=O)[C@H](Cc2ccc(-c3ccccc3)cc2)NC(=O)[C@H](C(C)C)NC(=O)[C@H](Cc2c[nH]c3ccccc23)NC(=O)[C@H](CC(=O)O)NC(=O)[C@H](Cc2c[nH]cn2)NC(=O)[C@H](CCCNC(=N)N)NC(=O)CSC[C@@H](C(=O)N[C@@H](CCN)C(=O)NCCCCCCCCCCC(=O)O)NC(=O)[C@H](CCCCN)NC(=O)[C@H](C(C)C)NC(=O)[C@H](CC2CCCCC2)NC(=O)[C@H](CCN)NC1=O [Compound 3290] ({CH2CO}-RHDWV[Bip]V[Orn][dL][Dab][Cha]VKC[Dab][Aun]-OH; thioether N-14)
10 | 8.21 | Cc1cccc(C[C@@H]2NC(=O)[C@H](CC(=O)O)NC(=O)[C@H](Cc3ccc(OCC(=O)O)cc3)NC(=O)[C@H](CCCNC(=N)N)NC(=O)CSC[C@@H](C(=O)N[C@@H](CCN)C(=O)NCCCCCCCCCCC(=O)O)NC(=O)[C@H](CCCNC(N)=O)NC(=O)[C@H](C(C)C)NC(=O)[C@H](CC3CCCCC3)NC(=O)[C@H](CCN)NC(=O)[C@@H](CC(C)C)NC(=O)[C@H](CCCN)NC(=O)[C@H](C(C)C)NC(=O)[C@H](Cc3ccc(-c4ccccc4)cc3)NC(=O)[C@H](C(C)C)NC2=O)c1 [Compound 3291] ({CH2CO}-RY(Carboxymethyl)D[Phe(3-Me)]V[Bip]V[Orn][dL][Dab][Cha]V[Cit]C[Dab][Aun]-OH; thioether N-14)
11 | 7.92 | Cc1cccc(C[C@@H]2NC(=O)[C@H](CC(=O)O)NC(=O)[C@H](Cc3ccc(OCC(=O)O)cc3)NC(=O)[C@H](CCCNC(=N)N)NC(=O)CSC[C@@H](C(=O)N[C@@H](CCN)C(=O)NCCCCCCCCCCC(=O)O)NC(=O)[C@H](CCCN)NC(=O)[C@H](C(C)C)NC(=O)[C@H](CC3CCCCC3)NC(=O)[C@H](CCN)NC(=O)[C@@H](CC(C)C)NC(=O)[C@H](CCCN)NC(=O)[C@H](C(C)C)NC(=O)[C@H](Cc3ccc(-c4ccccc4)cc3)NC(=O)[C@H](C(C)C)NC2=O)c1 [Compound 3292] ({CH2CO}-RY(Carboxymethyl)D[Phe(3-Me)]V[Bip]V[Orn][dL][Dab][Cha]V[Orn]C[Dab][Aun]-OH; thioether N-14)
12 | 8.30 | Cc1cccc(C[C@@H]2NC(=O)[C@H](CC(=O)O)NC(=O)[C@H](Cc3ccc(OCC(=O)O)cc3)NC(=O)[C@H](CCCNC(=N)N)NC(=O)CSC[C@@H](C(=O)NCCOCCOCC(=O)N[C@@H](CCN)C(=O)NCCCCCCCCCCC(=O)O)NC(=O)[C@H](CCCCN)NC(=O)[C@H](C(C)C)NC(=O)[C@H](CC3CCCCC3)NC(=O)[C@H](CN)NC(=O)[C@@H](CC(C)C)NC(=O)[C@H](CCCN)NC(=O)[C@H](C(C)C)NC(=O)[C@H](Cc3ccc(-c4ccccc4)cc3)NC(=O)[C@H](C(C)C)NC2=O)c1 [Compound 3293] ({CH2CO}-RY(Carboxymethyl)D[Phe(3-Me)]V[Bip]V[Orn][dL][Dap][Cha]VKC[AEEA][Dab][Aun]-OH; thioether N-14)
13 | 7.81 | CC(C)C[C@H]1NC(=O)[C@H](CCCN)NC(=O)[C@H](C(C)C)NC(=O)[C@H](Cc2ccc(-c3ccccc3)cc2)NC(=O)[C@H](C(C)C)NC(=O)[C@H](Cc2c[nH]c3ccccc23)NC(=O)[C@H](CC(=O)O)NC(=O)[C@H](Cc2ccc(OCC(=O)O)cc2)NC(=O)[C@H](Cc2ccncc2)NC(=O)CSC[C@@H](C(=O)N[C@@H](CCN)C(=O)NCCCCCCCCCCC(=O)O)NC(=O)[C@H](CN)NC(=O)[C@H](C(C)C)NC(=O)[C@H](CC2CCCCC2)NC(=O)[C@H](CCN)NC1=O [Compound 3294] ({CH2CO}-[4Pal]Y(Carboxymethyl)DWV[Bip]V[Orn][dL][Dab][Cha]V[Dap]C[Dab][Aun]-OH; thioether N-14)
14 | 7.90 | Cc1cccc(C[C@@H]2NC(=O)[C@H](CC(=O)O)NC(=O)[C@H](Cc3c[nH]cn3)NC(=O)[C@H](CCCNC(=N)N)NC(=O)CSC[C@@H](C(=O)NCCOCCOCC(=O)N[C@@H](CCN)C(=O)NCCCCCCCCCCC(=O)O)NC(=O)[C@H](CO)NC(=O)[C@H](C(C)C)NC(=O)[C@H](CC3CCCCC3)NC(=O)[C@H](CCN)NC(=O)[C@@H](CC(C)C)NC(=O)[C@H](CCCN)NC(=O)[C@H](C(C)C)NC(=O)[C@H](Cc3ccc(-c4ccccc4)cc3)NC(=O)[C@H](C(C)C)NC2=O)c1 [Compound 3295] ({CH2CO}-RHD[Phe(3-Me)]V[Bip]V[Orn][dL][Dab][Cha]VSC[AEEA][Dab][Aun]-OH; thioether N-14)
